Values of other authors in patent US20100239661A1, “PHARMACEUTICAL COMPOSITIONS OF URSODIOL” (priority 2006, published 2010).
Read-outs that look alike come from different tables or passages of the source.

How the values were obtained:
[1] = unconjugated ursodiol, healthy subjects
[2] = for oral absorption: following oral administration
[3] = not given; remark: listed apart in the source

SMILES: C[C@H](CCC(=O)O)[C@H]1CC[C@H]2[C@@H]3[C@@H](O)C[C@@H]4C[C@H](O)CC[C@]4(C)[C@H]3CC[C@]12C [Ursodiol, 3α,7β-dihydroxy-5β-cholan-24-oic acid]
- bound to plasma protein [1]: at least 70%
- share of biliary and plasma bile acids ([2]; chronic dose of 13 to 15 mg/kg/day): 30-50%
- oral absorption [2]: rapid and complete
- oral absorption ([2]; listed as ursodiol): incomplete
- hepatic extraction ([2]; once absorbed, in the absence of liver disease): about 50%
- urinary excretion ([2]; with treatment, except in severe cholestatic liver disease): less than 1%
- solubility (in chloroform): slightly soluble
- solubility (in ethanol): freely soluble
- solubility (in ether): sparingly soluble
- solubility (in glacial acetic acid): freely soluble
- solubility (in water): practically insoluble
- solubility (characterisation) [3]: low solubility
